This is an account of results in ChEMBL document CHEMBL1201862, “PubChem BioAssay data set” (2004).

Some test systems named below: HCT-15; BT-549; SF-539; RPMI-8226; EKVX; SNB-75; OVCAR-8; DU-145; RXF 393; MDA-MB-435; SK-MEL-2; Hs-578T; HCC 2998; KM12; OVCAR-4; CCRF-CEM; IGROV-1; A549; OVCAR-3; PC-3.
What all share (experiment): NCI-60 cell line screen, 48 h

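Grown in 96-well plates, cells were treated for 48 hours with each compound at five concentrations. Insufficient inhibition: endpoint recorded as highest concentration tested. At the GI50, growth is halved.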 Calls of active or inactive are those of the source. Cut-off read from the data, not from the text of the source: active = GI50 up to about 1.1 µM and inactive = higher.

In the case of `Cc1cc(C)c2c(=O)cc(-c3ccccc3)[nH]c2c1`, the GI50 with HCT-15 was 0.828 µM; in the assay on BT-549, 7.45 µM (inactive); in the assay on SF-539, 2.31 µM (inactive); with RPMI-8226, 2.02 µM (inactive); with EKVX, 4.47 µM (inactive); in the assay with SNB-75, 3.16 µM (inactive). Also, the GI50 in the assay on OVCAR-8 was 3.66 µM (inactive); in the assay with DU-145 it was 4.44 µM (inactive); in the assay with RXF 393, 1.61 µM (inactive); in the assay on MDA-MB-435 it was 0.211 µM (active); in the assay with SK-MEL-2, 8.17 µM (inactive); in the assay on Hs-578T it was 4.59 µM (inactive). For the same molecule, the GI50 in the assay on HCC 2998 is 1.38 µM (inactive); with KM12 it was 0.548 µM (active); in the assay with OVCAR-4 it was 9.71 µM (inactive); in the assay on CCRF-CEM, 1.49 µM (inactive); in the assay with IGROV-1, 2.86 µM (inactive); in the assay with A549 it was 1.84 µM (inactive). For the same molecule, the figures for the GI50 with OVCAR-3 and with PC-3 were 3.47 µM (inactive) and 2.06 µM (inactive), respectively.

`c1ccc2c(c1)N=c1cc3c(cc1N2)=NC12CCCCC1CC1=C(CCCC1)N32` (stereo unspecified): the GI50 in the assay with HCT-15 is 5.82 µM; in the assay on BT-549, 2.61 µM (inactive); in the assay on SF-539 it was 3.4 µM (inactive); in the assay on RPMI-8226, 2.07 µM (inactive); in the assay on EKVX, 4.53 µM (inactive); in the assay on SNB-75, 2.59 µM (inactive). Further, the GI50 was 3.21 µM (inactive) in the assay on OVCAR-8; > 10 µM (inactive) in the assay with DU-145; 1.39 µM (inactive) with RXF 393; 1.88 µM (inactive) in the assay on MDA-MB-435; 3.44 µM (inactive) in the assay on SK-MEL-2; 3.82 µM (inactive) in the assay on Hs-578T. For the same molecule, the GI50 is 6.76 µM (inactive) in the assay on HCC 2998; 2.37 µM (inactive) with KM12; 2.15 µM (inactive) with OVCAR-4; 2.12 µM (inactive) with CCRF-CEM; 3.4 µM (inactive) in the assay on IGROV-1; 3.61 µM (inactive) in the assay on A549. Also, the GI50 is 1.74 µM (inactive) in the assay on OVCAR-3 and 2.76 µM (inactive) in the assay on PC-3.

As for `O=C(CCCc1ccccn1)c1ccccc1`, the GI50 with HCT-15 was over 100 µM; in the assay on BT-549, > 100 µM (inactive); in the assay with SF-539, > 100 µM (inactive); with RPMI-8226 it was > 100 µM (inactive); in the assay with EKVX it was > 100 µM (inactive); with SNB-75, > 100 µM (inactive). The GI50 in the assay with OVCAR-8, with DU-145, in the assay with RXF 393, in the assay with MDA-MB-435, in the assay with SK-MEL-2 and with Hs-578T was > 100 µM (inactive) throughout. Further, the GI50 in the assay with HCC 2998, in the assay on OVCAR-4, with CCRF-CEM, in the assay on IGROV-1, with A549 and in the assay with OVCAR-3 was > 100 µM (inactive) each time. In addition, the GI50 with PC-3 is > 100 µM (inactive).

Regarding `O=C1c2cc([N+](=O)[O-])cc3cc([N+](=O)[O-])cc(c23)C(=O)N1CCCNCCNCCCN1C(=O)c2cc([N+](=O)[O-])cc3cc([N+](=O)[O-])cc(c23)C1=O`, the GI50 in the assay on HCT-15 is 0.117 µM; with BT-549, 1.7 µM (inactive); in the assay with SF-539 it was 0.0533 µM (active); with RPMI-8226, < 0.0114 µM (active); in the assay on EKVX, 1.05 µM (active); in the assay on SNB-75, 0.308 µM (active). Moreover, the GI50 with OVCAR-8 is 0.0841 µM (active); in the assay with DU-145 it was 0.453 µM (active); in the assay on RXF 393, 0.0317 µM (active); in the assay with MDA-MB-435, 0.975 µM (active); with SK-MEL-2 it was 0.124 µM (active); with Hs-578T, 0.106 µM (active). Besides, the GI50 is 0.0655 µM (active) with HCC 2998; 0.0582 µM (active) in the assay on KM12; 0.178 µM (active) with OVCAR-4; < 0.015 µM (active) in the assay on CCRF-CEM; 0.0301 µM (active) in the assay with IGROV-1; 0.0294 µM (active) in the assay with A549. Besides, the results for the GI50 in the assay with OVCAR-3 and in the assay with PC-3 were 0.0897 µM (active) and 0.376 µM (active), respectively.

On to `CN1N=C(N)c2cn(C3OC(COP(=O)(O)O)C(O)C3O)c3ncnc1c23` (stereo unspecified), for which the GI50 in the assay on HCT-15 was 19.7 µM; in the assay on BT-549, 7.48 µM (inactive); in the assay on SF-539, 32.4 µM (inactive); in the assay on RPMI-8226, 282 µM (inactive); with EKVX, 7.52 µM (inactive); with SNB-75, 5.33 µM (inactive). For the same molecule, the GI50 in the assay on OVCAR-8 was 1.28 µM (inactive); in the assay with DU-145 it was 1.48 µM (inactive); with RXF 393, 14 µM (inactive); in the assay with MDA-MB-435 it was 34.3 µM (inactive); with SK-MEL-2, 8.26 µM (inactive); with Hs-578T, 14.1 µM (inactive). The GI50 with HCC 2998 was 129 µM (inactive); in the assay on KM12, 2980 µM (inactive); in the assay with OVCAR-4, 5.86 µM (inactive); with CCRF-CEM it was 13 µM (inactive); in the assay with IGROV-1 it was 0.935 µM (active); with A549 it was 39.7 µM (inactive). Further, the GI50 in the assay on OVCAR-3 is 35.2 µM (inactive); in the assay on PC-3, 0.836 µM (active).

As for `Nc1ncc(C=O)c(NCC2(CO)CCC2)n1`, the GI50 is 71.1 µM in the assay on HCT-15; > 10 µM (inactive) in the assay with BT-549; 39.7 µM (inactive) with SF-539; 8.04 µM (inactive) with RPMI-8226; 66.1 µM (inactive) in the assay on SNB-75; 51.1 µM (inactive) with OVCAR-8. Also, the GI50 was 33 µM (inactive) in the assay on DU-145; 28.4 µM (inactive) in the assay on RXF 393; 44.9 µM (inactive) in the assay with MDA-MB-435; 19.3 µM (inactive) in the assay on SK-MEL-2; 41.1 µM (inactive) in the assay with Hs-578T; > 100 µM (inactive) with HCC 2998. Besides, the GI50 in the assay on KM12 was 83.9 µM (inactive); with OVCAR-4, 48.9 µM (inactive); with CCRF-CEM it was 38.4 µM (inactive); with IGROV-1, 41.5 µM (inactive); with A549 it was 37.5 µM (inactive); in the assay on OVCAR-3, 50.6 µM (inactive). In the assay on PC-3, the GI50 was 82.4 µM (inactive).

In the case of `C/C=C(/C)c1cnc(CC(C)C)c(=O)[nH]1`, the GI50 in the assay on HCT-15 was over 100 µM; in the assay on BT-549, > 100 µM (inactive); in the assay on RPMI-8226, 0.35 µM (active); in the assay with EKVX, > 100 µM (inactive); with SNB-75, > 100 µM (inactive); with OVCAR-8, > 100 µM (inactive). Further, the GI50 in the assay with DU-145, with RXF 393, with MDA-MB-435, in the assay with SK-MEL-2, in the assay with Hs-578T and in the assay on HCC 2998 was > 100 µM (inactive) throughout. The GI50 in the assay with KM12, in the assay with OVCAR-4, in the assay on CCRF-CEM, in the assay with IGROV-1, with A549 and with OVCAR-3 was > 100 µM (inactive) in each case. In the assay with PC-3, the GI50 is > 100 µM (inactive).

For `Cc1ccc(C)c(/C(=N\N=C(N)N)C2CC2)c1`, the GI50 in the assay on HCT-15 is 48.6 µM; in the assay on BT-549 it was 25.5 µM (inactive); with SF-539, 32.3 µM (inactive); with RPMI-8226 it was 28.8 µM (inactive); with EKVX it was 43.9 µM (inactive); with SNB-75, 37.5 µM (inactive). Moreover, the GI50 in the assay on OVCAR-8 is 46.6 µM (inactive); in the assay on DU-145, 58.9 µM (inactive); in the assay on RXF 393, > 100 µM (inactive); in the assay on MDA-MB-435 it was 22.8 µM (inactive); with SK-MEL-2 it was 50.8 µM (inactive); in the assay on Hs-578T it was 26.1 µM (inactive). In addition, the GI50 is 20.4 µM (inactive) with HCC 2998; 39.9 µM (inactive) in the assay with KM12; > 100 µM (inactive) with OVCAR-4; 32.7 µM (inactive) with IGROV-1; 43.3 µM (inactive) with A549; 94.6 µM (inactive) in the assay with OVCAR-3. In addition, the GI50 in the assay with PC-3 was 48.5 µM (inactive).
